“And” between values parts separate entries of the source, which are not always exact repeats. Equal entries are not always repeated. “Also recorded” adds a separate entry of the source. Marks after values point to notes of the source that are not given here.
What was measured:
Thrombin Time (TT) = assay: Oral administration of TGN 167 tablets to healthy male subjects (Example 47); assay type: in vivo, human
Experimental: TGN 167 tablets described above were administered via the oral route to 10 healthy male subjects as single doses (randomised double blind placebo controlled study). The group consisted of 10 healthy male volunteers, 9 of whom received active compound and one of whom received placebo. An amendment was introduced for the last panel, allowing 15 subjects (instead of 9) to receive a 600 mg dose. The interval between each dose of TGN 167 was one week minimum. The allocation of the placebo was such that each volunteer would only receive placebo once during the course of the study.
Orally administered doses were: 75 mg (one tablet), 150 mg (two tablets), 300 mg (four tablets) and 600 mg (eight tablets).

[1] = Comparative storage stability of sodium and calcium salts (Example 49); assay type: physicochemical; conditions: for Tri50c (w/w %, LOD corr.): corrected for loss on drying
Text: In both studies the active pharmaceutical ingredient was stored in grip sealed double bags within a PE/PP screw cap closed cylinder.

thrombin time [2] = assay: Intraduodenal absorption in rat, thrombin time (Examples 42 and 44); assay type: in vivo, male Wistar rats; design: Mean increase in thrombin time / Thrombin time increase: unit not given here; conditions: for Group mean thrombin time (s ± sd): 20 mg/kg intraduodenal
Experimental: • Place 10 mg of the relevant compound in an Eppendorf cup • Add 0.5 mL ethanol and shake for 10 minutes • Sonicate for 10 minutes • Add 1.5 mL of buffer • Shake for additional 15 minutes • Resulting target concentration: 5 mg/mL B. Intraduodenal Studies
The intraduodenal studies were performed using male Wistar rats, approximately 8 weeks of age and weighing between 250 and 300 g.
Food was withheld overnight prior to dosing and returned approximately 2 hours post-dose. Water was available ad libitum.
Animals were anaesthetised using gaseous halothane. A small incision was made in the abdomen and the duodenum located. Each animal received a single administration of control or test article by injection directly into the duodenum, using a constant dose volume of 4 mL/kg. Following administration the incision was closed using surgical staples.
Individual dose volumes were based on individual body weights, obtained on the day of dosing. Treatments employed for the study were as follows:
(§1) Approximately 0.6 mL of blood was collected via a tail vein into 3.8% tri sodium citrate tubes approximately 48 hours prior to dosing and again at 0.5, 1, 2, 4 and 8 hours post-dose.
(§2) Plasma was prepared by centrifugation at […] for 10 minutes at 4° C. Plasma was stored frozen (nominally −20° C.) prior to analysis in an automated coagulometer.
The thrombin times determined in example 42 were analysed to determine the standard deviation for increase in thrombin time, expressed as a percentage of the mean value (this is sometimes called the ‘coefficient of variation’).

thrombin time and APTT = assay: Oral administration in dog, PK/PD (Example 45)
Experimental: Three female and three male dogs were used for each leg of the study. The weight range of the dogs was 8-18 kg.
The PD was measured as thrombin time and APTT using an automated coagulometer. Plasma concentrations were measured using an LCMS/MS method.
The dose was tailored on an individual basis for each dog.

thrombin time [3] = assay: Oral absorption in rat, thrombin time (Example 43); assay type: in vivo, male Wistar rats; conditions: 20 mg/kg oral gavage
Experimental: The procedure of Example 42 was followed.
The per-oral studies were performed using male Wistar rats, approximately 8 weeks of age and weighing between 250 and 300 g.
Food was withheld overnight prior to dosing and returned approximately 2 hours post-dose. Water was available adlibitum.
Each animal received a single administration of control or test article by oral gavage, using a constant dose volume of 4 mL/kg.
Individual dose volumes were based on individual body weights, obtained on the day of dosing.
as §1, §2

[4] = Stability in enteric-coated hard gelatin capsules, HPLC-PDA (Example 41); assay type: physicochemical; conditions: for Amount of Tri50c: 10 mg content in 10 ml
Experimental: TRI 50c-standard (free acid) was stored in a desiccator over phosphorus pentoxide for 2 days for drying. Afterwards, the reference standard was weighed in a volumetric flask and dissolved in a mixture of acetonitrile and water (25/75 v/v %). Aliquots of the resulting solution (ST 1A) were diluted successively with water as shown in the dilution scheme of table 4.
The stored capsules of every batch at corresponding climatic condition were removed and 10 mg of the content was weighed in a 10 ml volumetric flask and dissolved in 10 ml of a mixture of acetonitrile/water (25/75 v/v %). These solutions were injected for impurity profile analysis and for quantification respectively.
The quantitative evaluation and the impurity profile analysis were performed using an HPLC-PDA method. The processing wavelength was set as 258 nm.

[5] = individual rats dosed intraduodenally, listed as Ca Salt, hemicalcium salt, in s
[6] = capsules (no blister) 40° C./75% r.h.
[7] = capsules in blister 25° C./60% r.h.
[8] = capsules in blister 40° C./75% r.h.

SMILES: COCCC[C@H](NC(=O)[C@@H]1CCCN1C(=O)[C@@H](Cc1ccccc1)NC(=O)OCc1ccccc1)B([O-])O.COCCC[C@H](NC(=O)[C@@H]1CCCN1C(=O)[C@@H](Cc1ccccc1)NC(=O)OCc1ccccc1)B([O-])O.[Ca+2] [TRI 50c calcium salt, Cbz-(R)-Phe-(S)-Pro-(R)-Mpg-B(OH)2 hemicalcium salt]
- safety assessments (Thrombin Time (TT); oral 75, 150, 300, 600 mg): No clinically significant findings
- time after administration at which all TT had returned to baseline (Thrombin Time (TT); oral tablets): 10 h
- effect on thrombin time (TT) (Thrombin Time (TT); oral tablets 75-600 mg): dose-related increase in the Thrombin Time (TT)
- adverse clinical events (Thrombin Time (TT); study period of 24 hours, any dose): no adverse clinical events of either a general or cardiovascular nature
- Color ([1]; T = 0): white
- TRI 50c (% peak area) ([1]; T = 0): 99.4 % peak area
- Tri50c (w/w %, LOD corr.) ([1]; T = 0): 99.7 w/w %
- Appearance ([1]; T = 0, hemicalcium salt): powdery,; also recorded: odourless
- Appearance ([1]; T = 1, 25° C./60% r.h.): powdery
- Color ([1]; T = 1, 25° C./60% r.h.): white
- TRI 50c (% peak area) ([1]; T = 1, 25° C./60% r.h.): 98.3 % peak area
- Tri50c (w/w %, LOD corr.) ([1]; T = 1, 25° C./60% r.h.): 101.5 w/w %
- Appearance ([1]; T = 1, 40° C./75% r.h.): powdery
- Color ([1]; T = 1, 40° C./75% r.h.): white
- TRI 50c (% peak area) ([1]; T = 1, 40° C./75% r.h.): 95.2 % peak area
- Tri50c (w/w %, LOD corr.) ([1]; T = 1, 40° C./75% r.h.): 100.6 w/w %
- Appearance ([1]; T = 1, −20° C.): powdery
- Color ([1]; T = 1, −20° C.): white
- TRI 50c (% peak area) ([1]; T = 1, −20° C.): 99.1 % peak area
- Tri50c (w/w %, LOD corr.) ([1]; T = 1, −20° C.): 102.7 w/w %
- Appearance ([1]; T = 3, 25° C./60% r.h.): powdery
- Color ([1]; T = 3, 25° C./60% r.h.): white
- TRI 50c (% peak area) ([1]; T = 3, 25° C./60% r.h.): 97.5 % peak area
- Tri50c (w/w %, LOD corr.) ([1]; T = 3, 25° C./60% r.h.): 104.3 w/w %
- Appearance ([1]; T = 3, 40° C./75% r.h.): powdery
- Color ([1]; T = 3, 40° C./75% r.h.): white
- TRI 50c (% peak area) ([1]; T = 3, 40° C./75% r.h.): 71.2 % peak area
- Tri50c (w/w %, LOD corr.) ([1]; T = 3, 40° C./75% r.h.): 82.0 w/w %
- Appearance ([1]; T = 3, −20° C.): powdery
- Color ([1]; T = 3, −20° C.): white
- TRI 50c (% peak area) ([1]; T = 3, −20° C.): 99.2 % peak area
- Tri50c (w/w %, LOD corr.) ([1]; T = 3, −20° C.): 103.0 w/w %
- TRI 50c (% peak area) ([1]; T = 12, 25° C./60% r.h.): 96.9 % peak area
- Tri50c (w/w %, LOD corr.) ([1]; T = 12, 25° C./60% r.h.): 94.8 w/w %
- Group mean thrombin time (s ± sd) (thrombin time [2]; 0.5 hour): 42.0 ± 6.74 s
- Group mean thrombin time (s ± sd) (thrombin time [2]; 1 hour): 34.0 ± 1.89 s
- Group mean thrombin time (s ± sd) (thrombin time [2]; 2 hour): 22.6 ± 5.10 s
- Group mean thrombin time (s ± sd) (thrombin time [2]; 4 hour): 24.4 ± 2.41 s
- Group mean thrombin time (s ± sd) (thrombin time [2]; 8 hour): 22.4 ± 1.73 s
- Group mean thrombin time (s ± sd) (thrombin time [2]; −48 hour (pre-dose)): 21.6 ± 1.77 s
- Mean increase in thrombin time (thrombin time [2]; 0.5 h minus 0 h, intraduodenal): 20.50
- Thrombin time, 0 h (thrombin time [2]; [5]): 21.97 and 18.75 and 23.57 and 21.57
- Thrombin time, 0.5 h (thrombin time [2]; [5]): 35.32 and 45.98 and 37.27 and 49.30
- Thrombin time increase (thrombin time [2]; individual rats, 0.5 h minus 0 h, listed as Ca Salt, hemicalcium salt): 13.35 and 27.23 and 13.70 and 27.73
- mean thrombin clotting time 8 hours post dose (thrombin time and APTT): 20.2 s
- time of peak thrombin time post dose (thrombin time and APTT): three hours post dose
- mean APTT at peak (thrombin time and APTT; 3 hours following administration, from 14.5 seconds): 18 s
- mean thrombin clotting time at peak (C max) (thrombin time and APTT; base line 15 seconds (calcium salt), 15.4 seconds (TRI 50c)): 80.5 s
- tolerance (thrombin time and APTT; enterically coated gelatine capsules): tolerated well with no adverse events
- estimated bioavailability in some animals (thrombin time and APTT; estimated from thrombin clotting times): ≤ 50%
- mean estimated bioavailability (thrombin time and APTT; estimated from thrombin clotting times, including two lower responders): 25%
- peak thrombin clotting times achieved by all dogs (thrombin time and APTT; individual dogs): up to 148 seconds
- Group mean thrombin times (s ± sd) (thrombin time [3]; 0.5 hour): 25.9 ± 3.05 s
- Group mean thrombin times (s ± sd) (thrombin time [3]; 1 hour): 25.7 ± 1.94 s
- Group mean thrombin times (s ± sd) (thrombin time [3]; 2 hour): 24.3 ± 0.98 s
- Group mean thrombin times (s ± sd) (thrombin time [3]; 4 hour): 25.0 ± 1.31 s
- Group mean thrombin times (s ± sd) (thrombin time [3]; 8 hour): 22.9 ± 3.46 s
- Group mean thrombin times (s ± sd) (thrombin time [3]; −48 hour (pre-dose)): 23.4 ± 1.25 s
- Benzaldeh. % Area in impurity profile [4, 6]: 3.64 % Area
- Imp.I % Area in impurity profile [4, 6]: 0.84 % Area
- Amount of Tri50c [4, 6]: 780.097 µg/mL
- Benzaldeh. % Area in impurity profile [4, 7]: 1.29 % Area
- Amount of Tri50c [4, 7]: 930.903 µg/mL
- Benzaldeh. % Area in impurity profile [4, 8]: 2.37 % Area
- Amount of Tri50c [4, 8]: 786.223 µg/mL
- Purity (HPLC % Area) T1 ([4]; capsules in blister, 1.5 month 25° C./60% r.h., hemicalcium salt): 98.0 HPLC % Area
- Purity (HPLC % Area) T1 ([4]; capsules in blister, 1.5 month 25° C./60% r.h., listed as TRI50C Ca Salt, hemicalcium salt): 98.02 HPLC % Area
- Purity (HPLC % Area) T1 ([4]; capsules in blister, 1.5 month 40° C./75% r.h., hemicalcium salt): 97.2 HPLC % Area
- Purity (HPLC % Area) T1 ([4]; capsules in blister, 1.5 month 40° C./75% r.h., listed as TRI50C Ca Salt, hemicalcium salt): 97.19 HPLC % Area
- Purity (HPLC % Area) T1 ([4]; capsules without blister, 1.5 month 40° C./75% r.h., hemicalcium salt): 95.0 HPLC % Area
- Purity (HPLC % Area) T1 ([4]; capsules without blister, 1.5 month 40° C./75% r.h., listed as TRI50C Ca Salt, hemicalcium salt): 94.96 HPLC % Area
- Purity (HPLC % Area) T0 ([4]; purity of the batch before storage, hemicalcium salt): 99.2^2) HPLC % Area and 99.2^2 HPLC % Area

Source: patent publication US20050282757A1, “Peptide boronic acid compounds useful in anticoagulation” (Trigen Limited, priority 2002, published 2005)
